Laboratory results as given in patent publication US11179383B2 (Gilead Sciences, Inc., priority 2018, dated 2021).
pEC50: −log10 of the molar value.

Biological target: T1, α4β7 integrin (Homo sapiens, UniProt P13612+P26010)
T1 construct: monitoring the capture of α4β7 integrin expressing cells on a recombinant MadCAM-1 extracellular domain-coated plate; endogenous in cells; host or cells: RPMI8866 cells
T1 sequence (P13612 34-1032): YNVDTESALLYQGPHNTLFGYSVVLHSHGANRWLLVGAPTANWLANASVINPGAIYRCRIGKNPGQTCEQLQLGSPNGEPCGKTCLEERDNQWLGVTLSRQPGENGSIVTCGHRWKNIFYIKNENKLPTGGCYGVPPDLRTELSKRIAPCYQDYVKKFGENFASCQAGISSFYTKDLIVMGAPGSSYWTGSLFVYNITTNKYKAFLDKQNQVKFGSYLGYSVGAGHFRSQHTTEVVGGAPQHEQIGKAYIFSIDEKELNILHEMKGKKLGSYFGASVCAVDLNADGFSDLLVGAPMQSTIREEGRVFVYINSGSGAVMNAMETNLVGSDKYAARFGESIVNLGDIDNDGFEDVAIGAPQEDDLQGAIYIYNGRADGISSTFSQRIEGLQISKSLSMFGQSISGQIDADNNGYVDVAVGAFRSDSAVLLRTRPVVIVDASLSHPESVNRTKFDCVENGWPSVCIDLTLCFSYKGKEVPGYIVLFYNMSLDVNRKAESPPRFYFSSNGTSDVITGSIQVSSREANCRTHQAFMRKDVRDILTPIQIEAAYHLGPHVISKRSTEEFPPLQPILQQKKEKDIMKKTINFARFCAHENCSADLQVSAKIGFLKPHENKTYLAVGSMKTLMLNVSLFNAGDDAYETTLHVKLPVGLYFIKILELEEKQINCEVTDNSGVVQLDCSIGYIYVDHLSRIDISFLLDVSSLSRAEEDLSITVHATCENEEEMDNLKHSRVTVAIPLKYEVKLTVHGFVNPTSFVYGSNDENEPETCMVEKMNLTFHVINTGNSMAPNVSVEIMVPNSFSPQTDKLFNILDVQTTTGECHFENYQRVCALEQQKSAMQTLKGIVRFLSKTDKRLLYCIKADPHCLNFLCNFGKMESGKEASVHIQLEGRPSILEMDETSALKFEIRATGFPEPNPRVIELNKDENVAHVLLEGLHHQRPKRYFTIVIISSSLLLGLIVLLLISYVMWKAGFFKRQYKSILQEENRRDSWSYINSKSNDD
T1 sequence (P26010 20-798): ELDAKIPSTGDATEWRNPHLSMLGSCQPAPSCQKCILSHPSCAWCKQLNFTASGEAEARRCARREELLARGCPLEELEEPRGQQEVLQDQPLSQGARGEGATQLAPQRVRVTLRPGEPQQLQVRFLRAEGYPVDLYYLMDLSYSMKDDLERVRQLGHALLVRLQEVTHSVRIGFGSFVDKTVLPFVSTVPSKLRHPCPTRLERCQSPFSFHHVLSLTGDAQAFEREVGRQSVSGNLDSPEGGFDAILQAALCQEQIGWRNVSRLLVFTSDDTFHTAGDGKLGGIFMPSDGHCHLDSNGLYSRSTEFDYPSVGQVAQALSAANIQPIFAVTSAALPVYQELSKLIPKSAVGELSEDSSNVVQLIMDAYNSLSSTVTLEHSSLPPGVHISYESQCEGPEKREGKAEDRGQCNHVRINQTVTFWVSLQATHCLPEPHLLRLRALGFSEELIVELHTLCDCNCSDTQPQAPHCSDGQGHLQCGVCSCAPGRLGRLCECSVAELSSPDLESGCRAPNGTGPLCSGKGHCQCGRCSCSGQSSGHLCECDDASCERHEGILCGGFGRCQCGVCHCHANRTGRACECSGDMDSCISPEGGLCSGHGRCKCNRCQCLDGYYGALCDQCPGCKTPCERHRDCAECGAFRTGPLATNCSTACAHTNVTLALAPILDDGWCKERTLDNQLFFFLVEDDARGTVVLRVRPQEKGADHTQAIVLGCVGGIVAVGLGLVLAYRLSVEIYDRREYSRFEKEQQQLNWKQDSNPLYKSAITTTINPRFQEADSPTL
Experiment: α4β7 Integrin Cell Capture Assay
Format: cell-based
Conditions: capture of α4β7 integrin expressing RPMI8866 cells on recombinant MadCAM-1 extracellular domain-coated plate; DMEM+0.5% FBS+0.5 mM MnCl2; read-out: EC50 α4β7
Method in brief: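 RPMI8866 cells in DMEM + 0.5% FBS + 0.5 mM MnCl2 preincubated with compound 1 h at 37 °C, then allowed to bind 30 min at 37 °C to plates coated with MAdCAM-1 extracellular domain (1.0 μg/mL). Cells fixed with glutaraldehyde, Hoechst-stained, imaged and bound cells counted; EC50 from cell count versus concentration.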

pEC50	SMILES
9.66	Cc1nc(-c2ccc(C[C@H](NC(=O)c3c(F)cc(N4CCOC[C@@H]4C(F)(F)F)cc3F)C(=O)O)c3ccccc23)c(=O)n(C)c1C [Example 177]
8.89	COc1cccc(OC)c1-c1ccc(C[C@H](NC(=O)c2c(F)cc(NS(=O)(=O)c3ccc(-n4cncn4)cc3)cc2F)C(=O)O)c2ccncc12 (single isomer, unassigned) [Example 164]
8.24	CCOCc1cc(OC)c(-c2ccc(C[C@H](NC(=O)c3c(F)cc(NS(=O)(=O)c4ccc(-c5ccnc(F)c5)cc4)cc3F)C(=O)O)c3nc(C)oc23)c(OC)c1 [Example 151, (S)-2-(2,6-difluoro-4-((4-(2-fluoropyridin-4-yl)phenyl)sulfonamido)benzamido)-3-(7-(4-(ethoxymethyl)-2,6-dimethoxyphenyl)-2-methylbenzo[d]oxazol-4-yl) propanoic acid]
9.30	CC[C@@H](Nc1cc(F)c(C(=O)N[C@@H](Cc2ccc(-c3cc4cnccc4n(C)c3=O)c3ccccc23)C(=O)O)c(F)c1)C(F)(F)F [Example 142]

Further lines, the compound ahead of its results:

SMILES	pEC50
O=C(N[C@@H](Cc1ccc(-c2cccc3c2OCCC3)c2ccccc12)C(=O)O)c1c(Cl)cccc1Cl [Example 111, (S)-3-(4-(chroman-8-yl)naphthalen-1-yl)-2-(2,6-dichlorobenzamido) propanoic acid]	7.12
Cn1cccc(-c2ccc(C[C@H](NC(=O)c3c(Cl)cccc3Cl)C(=O)O)c3ncccc23)c1=O [Example 39, (S)-2-(2,6-dichlorobenzamido)-3-(5-(1-methyl-2-oxo-1,2-dihydropyridin-3-yl)quinolin-8-yl)propanoic acid]	7.13
O=C(N[C@@H](Cc1ccc(-c2c(Cl)cc(F)cc2Cl)c2ccccc12)C(=O)O)c1c(F)cccc1F [Example 106, (S)-3-(4-(2,6-dichloro-4-fluorophenyl)naphthalen-1-yl)-2-(2,6-difluorobenzamido)propanoic acid]	6.71
Cc1cnc(-c2ccc(C[C@H](NC(=O)c3c(F)cc(N4CCOC[C@@H]4C(F)(F)F)cc3F)C(=O)O)c3ccccc23)nc1C [Example 141, (S)-2-(2,6-difluoro-4-((R)-3-(trifluoromethyl)morpholino)benzamido)-3-(4-(4,5-dimethylpyrimidin-2-yl)naphthalen-1-yl)propanoic acid]	8.44
CC[C@@H](Nc1cc(F)c(C(=O)N[C@@H](Cc2ccc(-c3c(C)n(C)c(=O)n(C)c3=O)c3cccnc23)C(=O)O)c(F)c1)C(F)(F)F (single isomer, unassigned) [Example 9]	8.39
Cc1cc(-c2ccc(C[C@H](NC(=O)c3c(Cl)cccc3Cl)C(=O)O)c3ncccc23)c(=O)n(C)c1 [Example 31, (S)-2-(2,6-Dichlorobenzamido)-3-(5-(1,5-dimethyl-2-oxo-1,2-dihydropyridin-3-yl)quinolin-8-yl)propanoic acid]	7.63
